# Laboratory results published in ChEMBL document CHEMBL4346741, “Synthesis, pharmacological evaluation, and mechanistic study of adefovir mixed phosphonate derivatives bearing cholic acid and l-amino acid moieties for the treatment of HBV” (Bioorg Med Chem, 2019).
# Assays:
# Hepatitis B virus = assay: Antiviral activity against Hepatitis B virus infected in human HepG2.2.15 cells assessed as inhibition of viral DNA synthesis incubated for 2 days followed by replacement of fresh medium containing compound and measured at day 10 by RT-PCR analysis; type: functional, organism-based
# HepG2 2.2.15 = assay: Cytotoxicity against human HepG2.2.15 cells assessed as reduction in cell viability incubated for 12 hrs followed by replacement of fresh medium containing compound and measured after 2 days by CCK-8 assay; type: functional
# [1] = Selectivity index, ratio of CC50 for cytotoxicity against human HepG2.2.15 cells to EC50 for HBV infected in human HepG2.2.15 cells; type: toxicity, cell-based; conditions: read-out: Ratio CC50/EC50
# HK-2 [2] = assay: Cytotoxicity against human HK2 cells assessed as reduction in cell viability at 100 umol/L after 72 hrs by MTT assay relative to control; type: cell-based; conditions: hk-2, 72 h, 100 µM
# HK-2 [3] = assay: Reduction in mitochondrial membrane potential in human HK2 cells assessed as decrease in red fluorescence at 25 to 100 uM after 72 hrs by JC-1 staining based flow cytometry; type: ADME, cell-based; conditions: hk-2, 72 h
# HK-2 [4] = assay: Reduction in mitochondrial membrane potential in human HK2 cells assessed as increase in green fluorescence at 25 to 100 uM after 72 hrs by JC-1 staining based flow cytometry; type: ADME, cell-based; conditions: hk-2, 72 h
# HK-2 [5] = assay: Induction of mitochondrial membrane dysfunction in human HK2 cells assessed as reduction in mitochondrial potential at 100 uM after 72 hrs by JC-1 staining based flow cytometry; type: cell-based; conditions: hk-2, 72 h
# HK-2 [6] = assay: Induction of apoptosis in human HK2 cells assessed as nuclear pyknosis at 25 to 100 uM measured after 72 hrs by Hoechst 33342 staining based fluorescence assay; type: cell-based; conditions: hk-2, 72 h
# HK-2 [7] = assay: Induction of apoptosis in human HK2 cells assessed as dense staining at 25 to 100 uM measured after 72 hrs by Hoechst 33342 staining based fluorescence assay; type: cell-based; conditions: hk-2, 72 h
# HK-2 [8] = assay: Induction of apoptosis in human HK2 cells assessed as presence of apoptotic bodies at 25 to 100 uM measured after 72 hrs by Hoechst 33342 staining based fluorescence assay; type: cell-based; conditions: hk-2, 72 h
# HK-2 [9] = assay: Induction of apoptosis in human HK2 cells assessed as early apoptotic cells at 25 uM measured after 72 hrs by Annexin V-FITC/propidium iodide staining based flow cytometry (reference value: 8.1%); type: cell-based; conditions: hk-2, 72 h
# HK-2 [10] = assay: Induction of apoptosis in human HK2 cells assessed as early apoptotic cells at 50 uM measured after 72 hrs by Annexin V-FITC/propidium iodide staining based flow cytometry (reference value: 8.1%); type: cell-based; conditions: hk-2, 72 h
# HK-2 [11] = assay: Induction of apoptosis in human HK2 cells assessed as early apoptotic cells at 100 uM measured after 72 hrs by Annexin V-FITC/propidium iodide staining based flow cytometry (reference value: 8.1%); type: cell-based; conditions: hk-2, 72 h
# HK-2 [12] = assay: Induction of apoptosis in human HK2 cells assessed as reduction in Bcl-2 expression at 25 to 100 uM after 72 hrs by Western blot analysis; type: cell-based; conditions: hk-2, 72 h
# HK-2 [13] = assay: Induction of apoptosis in human HK2 cells assessed as increase in Bax level at 25 to 100 uM after 72 hrs by Western blot analysis; type: cell-based; conditions: hk-2, 72 h
# HK-2 [14] = assay: Induction of apoptosis in human HK2 cells assessed as increase in Bax/Bcl2 ratio after 72 hrs by Western blot analysis; type: cell-based; conditions: hk-2, 72 h
# HK-2 [15] = assay: Induction of apoptosis in human HK2 cells assessed as induction of cleaved caspase 3 levels at 25 to 100 uM after 72 hrs by Western blot analysis; type: cell-based; conditions: hk-2, 72 h
# [16] = target: T1, Solute carrier family 22 member 6 (Homo sapiens, UniProt Q4U2R8); assay: Substrate activity at human OAT1 expressed in HEK293 cells harboring pEGFP assessed as compound uptake measured after 20 mins by UPLC-MS/MS method; type: ADME, cell-based; conditions: hek293, 20 min
# T1 sequence (Q4U2R8 whole entry): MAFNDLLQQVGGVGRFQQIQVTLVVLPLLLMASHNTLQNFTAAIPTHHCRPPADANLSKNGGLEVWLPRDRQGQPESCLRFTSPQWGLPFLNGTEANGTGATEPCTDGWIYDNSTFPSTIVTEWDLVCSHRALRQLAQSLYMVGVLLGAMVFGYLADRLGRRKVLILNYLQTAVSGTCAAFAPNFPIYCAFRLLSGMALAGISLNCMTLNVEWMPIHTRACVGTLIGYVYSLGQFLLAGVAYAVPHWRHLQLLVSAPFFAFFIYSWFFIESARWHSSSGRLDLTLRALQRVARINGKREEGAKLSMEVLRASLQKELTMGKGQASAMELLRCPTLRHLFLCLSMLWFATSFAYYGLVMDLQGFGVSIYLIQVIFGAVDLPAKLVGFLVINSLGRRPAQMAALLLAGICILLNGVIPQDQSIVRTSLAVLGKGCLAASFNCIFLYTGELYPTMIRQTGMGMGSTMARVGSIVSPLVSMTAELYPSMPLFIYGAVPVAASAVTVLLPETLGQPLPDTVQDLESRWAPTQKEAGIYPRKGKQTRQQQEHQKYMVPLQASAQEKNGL
# [17] = target: T1, Solute carrier family 22 member 6; assay: Inhibition of human OAT1 expressed in HEK293 cells assessed as P-amino hippuric acid uptake inhibition incubated for 10 mins by UPLC-MS/MS method; type: ADME, cell-based
# HEK293 [18] = assay: Cytotoxicity against human HEK293 cells expressing OAT1 assessed as reduction in cell viability at 1000 uM after 1 hr by MTT assay relative to control; type: ADME, cell-based; conditions: hek293, 1 h
# [19] = AUC (0 to t) in Sprague-Dawley rat at 100 mg/kg, po measured up to 24 hrs by LC-MS/MS analysis; type: ADME, organism-based; set-up: dose 100 mg/kg, time < 24 hr, route oral; conditions: in vivo
# [20] = Volume of distribution in Sprague-Dawley rat at 100 mg/kg, po measured up to 24 hrs by LC-MS/MS analysis; type: ADME, organism-based; conditions: in vivo
# [21] = Drug distribution in mouse kidney at 5.47 mg/kg, po measured up to 24 hrs by LC-MS/MS analysis; type: ADME, organism-based; conditions: in vivo
# HK-2 [22] = assay: Cytotoxicity against human HK2 cells assessed as reduction in cell viability after 72 hrs by MTT assay; type: cell-based; conditions: hk-2, 72 h
# OAT1 = assay: Selectivity ratio, ratio of substrate activity at human OAT1 expressed in HEK293 cells harboring pEGFP assessed as compound uptake to substrate activity in human HEK293 cells harboring pEGFP-N1 empty vector assessed as compound uptake; type: ADME, cell-based
# HK-2 [23] = assay: Cytotoxicity against human HK2 cells assessed as cell viability at 25 to 100 uM after 72 hrs by MTT assay relative to control; type: cell-based; conditions: hk-2, 72 h
# HK-2 [24] = assay: Induction of mitochondrial membrane dysfunction in human HK2 cells assessed as effect mitochondrial membrane potential at 100 uM after 72 hrs by JC-1 staining based flow cytometry; type: cell-based; conditions: hk-2, 72 h
# HK-2 [25] = assay: Nephrotoxicity in human HK2 cells assessed as decrease in cell apoptosis at 25 to 100 uM measured after 72 hrs by Hoechst 33342 staining based fluorescence assay relative to ADV; type: toxicity; set-up: scale not given: the % may be the effect or the level left; conditions: hk-2, 72 h
# HK-2 [26] = assay: Induction of apoptosis in human HK2 cells assessed as increase in Bax/Bcl2 ratio at 25 to 100 uM after 72 hrs by Western blot analysis; type: cell-based; conditions: hk-2, 72 h
# HEK293 [27] = assay: Substrate activity in human HEK293 cells harboring pEGFP-N1 empty vector assessed as compound uptake measured at 5 to 40 mins by UPLC-MS/MS method; type: ADME, cell-based
# [28] = target: T2, OAT1 (solute carrier family 22 member 6) (Homo sapiens, UniProt Q4U2R8); assay: Safety index, ratio of Adefovir dipivoxil IC50 to compound IC50 for human OAT1 expressed in HEK293 cells; type: ADME, cell-based; conditions: read-out: Ratio IC50
# T2 sequence (Q4U2R8 whole entry): T1 sequence (Q4U2R8 whole entry)
# HEK293 [29] = assay: Cytotoxicity against human HEK293 cells harboring pEGFP-N1 empty vector assessed as reduction in cell viability after 1 hr by MTT assay; type: cell-based; conditions: hek293, 1 h
# [30] = Drug distribution in mouse liver at 5.47 mg/kg, po measured at 30 mins by LC-MS/MS analysis; type: ADME, organism-based; conditions: read-out: Drug uptake
# [31] = Drug distribution in mouse liver at 5.47 mg/kg, po measured at 60 mins by LC-MS/MS analysis; type: ADME, organism-based; conditions: read-out: Drug uptake
# [32] = Drug distribution in mouse liver at 5.47 mg/kg, po measured at 3 hrs by LC-MS/MS analysis; type: ADME, organism-based; conditions: read-out: Drug uptake
# [33] = Drug distribution in mouse liver at 5.47 mg/kg, po measured at 6 hrs by LC-MS/MS analysis; type: ADME, organism-based; conditions: read-out: Drug uptake
# [34] = Drug distribution in mouse liver at 5.47 mg/kg, po measured at 24 hrs by LC-MS/MS analysis; type: ADME, organism-based; conditions: read-out: Drug uptake
# [35] = Potency index, ratio of ADV drug concentration to compound concentration in mouse liver measured at 30 mins; type: ADME, tissue-based; conditions: in vivo, 0.5 h
# [36] = Potency index, ratio of ADV drug concentration to compound concentration in mouse liver measured at 60 mins; type: ADME, tissue-based; conditions: in vivo, 1 h
# [37] = Potency index, ratio of ADV drug concentration to compound concentration in mouse liver measured at 3 hrs; type: ADME, tissue-based; conditions: in vivo
# [38] = Potency index, ratio of ADV drug concentration to compound concentration in mouse liver measured at 6 hrs; type: ADME, tissue-based; conditions: in vivo
# [39] = Potency index, ratio of ADV drug concentration to compound concentration in mouse liver measured at 24 hrs; type: ADME, tissue-based; conditions: in vivo
# HEK293 [40] = assay: Cytotoxicity against human HEK293 cells expressing OAT1 assessed as reduction in cell viability after 1 hr by MTT assay; type: ADME, cell-based; conditions: hek293, 1 h
compound,measurement,setting,value
CC(C)(C)C(=O)OCOP(=O)(COCCn1cnc2c(N)ncnc21)OCOC(=O)C(C)(C)C [ADEFOVIR DIPIVOXIL],EC50,Hepatitis B virus,3.09 µM
same,CC50,HepG2 2.2.15,439 µM
same,selectivity ratio,[1],142
same,Activity,HK-2 [2],61.01%
same,Activity,HK-2 [3],Toxic
same,Activity,HK-2 [4],Toxic
same,Activity,HK-2 [5],Toxic
same,Activity,HK-2 [6],Toxic
same,Activity,HK-2 [7],Toxic
same,Activity,HK-2 [8],Toxic
same,Activity,HK-2 [9],16.8%
same,Activity,HK-2 [10],18.9%
same,Activity,HK-2 [11],43.3%
same,Activity,HK-2 [12],Toxic
same,Activity,HK-2 [13],Toxic
same,Activity,HK-2 [14],Dose-dependent effect
same,Activity,HK-2 [15],Toxic
same,Activity,[16],400 pmol/min/mg
same,IC50,[17],13.5 µM
same,Activity,HEK293 [18],47.16%
same,AUCt,[19],1655.225 µg/L/h
same,Vd,[20],153.128 L/kg
same,Drug uptake,[21],Active
same,Activity,HK-2 [22],Dose-dependent effect
same,uptake ratio,OAT1,7.5
CC(C)C[C@@H](N)C(=O)OCCCOP(=O)(COCCn1cnc2c(N)ncnc21)OCCCOC(=O)CC[C@@H](C)[C@H]1CC[C@H]2[C@@H]3[C@@H](O)C[C@@H]4C[C@H](O)CC[C@]4(C)[C@H]3CC[C@]12C (some centres not stated),EC50,Hepatitis B virus,0.42 µM
same,CC50,HepG2 2.2.15,446 µM
same,selectivity ratio,[1],1060
same,Activity,HK-2 [23],Non-Toxic
same,Activity,HK-2 [24],Non-Toxic
same,Activity,HK-2 [6],Non-Toxic
same,Activity,HK-2 [7],Non-Toxic
same,Activity,HK-2 [8],Non-Toxic
same,Activity,HK-2 [25],37.4%
same,Activity,HK-2 [9],9.7%
same,Activity,HK-2 [10],6.1%
same,Activity,HK-2 [11],5.9%
same,Activity,HK-2 [26],Non-Toxic
same,Activity,HK-2 [15],Non-Toxic
same,Activity,[16],< 60 pmol/min/mg
same,Activity,HEK293 [27],< 60 pmol/min/mg
same,IC50,[17],286 µM
same,selectivity ratio,[28],21
same,Activity,HEK293 [29],Non-Toxic
same,AUCt,[19],4645.705 µg/L/h
same,Vd,[20],78.716 L/kg
same,concentration at 0.5 h,[30],305 ng/g
same,concentration at 1 h,[31],1070 ng/g
same,concentration at 3 h,[32],1160 ng/g
same,concentration at 6 h,[33],721 ng/g
same,concentration at 24 h,[34],695 ng/g
same,Ratio,[35],4.2
same,Ratio,[36],6.5
same,Ratio,[37],3.4
same,Ratio,[38],4.8
same,Ratio,[39],8.8
same,Activity,HEK293 [40],Non-Toxic
